Test results as given in patent US20240376094A2, “SELECTIVE BCL-XL PROTAC COMPOUNDS AND METHODS OF USE” (Les Laboratoires Servier, priority 2021, published 2024).
pIC50: −log10 of the molar value.

Assays:
MOLT-4 cells = test: MOLT-4 cell viability, CTG assay; format: cell-based; settings: Homo sapiens, MOLT-4, 48 h
In short: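 Cells grown in RPMI 1640 with 10% FBS at 37° C, 5% CO2, then exposed to compounds for 48 h (11-point 5-fold dilution, triplicates). ATP measured by CellTiter-Glo luminescence; IC50 from four-parameter fit versus control, mean of ≥2 independent experiments.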

Bcl-xL = molecular target: T1, Bcl-xL (Homo sapiens, UniProt Q07817); test: HCT116 Bcl-xL degradation, capillary-based immunoassay (WES); format: cell-based; settings: for DC50: HCT116, 24 h, 9-point serial dilution
T1 construct: Measured levels of Bcl-xL protein of HCT116 cells treated with the tested compounds; host or cells: HCT116
In short: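 HCT116 cells treated 24 h with compound at 10/100 nM and/or 9-point dilution (quadruplicates), then lysed. Bcl-xL measured by capillary WES immunoassay, normalized to cofilin and expressed as % of untreated cells. DC50 from four-parameter curve fit.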

T1 sequence (Q07817 whole entry): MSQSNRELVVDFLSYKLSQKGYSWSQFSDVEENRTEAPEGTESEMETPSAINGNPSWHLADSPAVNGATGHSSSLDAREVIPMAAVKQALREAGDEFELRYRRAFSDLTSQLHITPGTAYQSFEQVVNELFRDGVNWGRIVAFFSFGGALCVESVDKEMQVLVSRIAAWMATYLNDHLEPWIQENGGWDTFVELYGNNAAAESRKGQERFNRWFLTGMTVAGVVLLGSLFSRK

Row | SMILES | pIC50 (MOLT-4 cells) | DC50 (Bcl-xL) [nM] | remaining activity at 0.01 µM (Bcl-xL; HCT-116, HCT116, 10 nM, 24 h, % of untreated cells) [%] | remaining activity at 0.1 µM (Bcl-xL; HCT-116, HCT116, 100 nM, 24 h, % of untreated cells) [%]
1 | Cc1c(Nc2nc3ccccc3s2)nnc2c1CCCN2c1ccc(-c2cnn(CC34CC5(C)CC(C)(C3)CC(OCCN(C)CCCCCCOc3cccc6c3C(=O)N(C3CCC(=O)NC3=O)C6=O)(C5)C4)c2C)c(C(=O)O)n1 (stereo not shown) [Example 141, 6-[3-(1,3-benzothiazol-2-ylamino)-4-methyl-6,7-dihydro-5H-pyrido[2,3-c]pyridazin-8-yl]-3-[1-[[3-[2-[6-[2-(2,6-dioxo-3-piperidyl)-1,3-dioxo-isoindolin-4-yl]oxyhexyl-methyl-amino]ethoxy]-5,7-dimethyl-1-adamantyl]methyl]-5-methyl-pyrazol-4-yl]pyridine-2-carboxylic acid] | 7.98 | > 316 |  | 
2 | Cc1ncsc1-c1ccc(CNC(=O)[C@@H]2C[C@@H](O)CN2C(=O)[C@@H](NC(=O)C2(F)CC2)C(C)(C)C)c(OCCCCCCCCCCCCCCCN(C)CCOC23CC4(C)CC(C)(CC(Cn5ncc(-c6ccc(N7CCCc8c7nnc(Nc7nc9ccccc9s7)c8C)nc6C(=O)O)c5C)(C4)C2)C3)c1 [Example 83, 6-[3-(1,3-benzothiazol-2-ylamino)-4-methyl-6,7-dihydro-5H-pyrido[2,3-c]pyridazin-8-yl]-3-[1-[[3-[2-[15-[2-[[[(2S,4R)-1-[(2S)-2-[(1-fluorocyclopropanecarbonyl)amino]-3,3-dimethyl-butanoyl]-4-hydroxy-pyrrolidine-2-carbonyl]amino]methyl]-5-(4-methylthiazol-5-yl)phenoxy]pentadecyl-methyl-amino]ethoxy]-5,7-dimethyl-1-adamantyl]methyl]-5-methyl-pyrazol-4-yl]pyridine-2-carboxylic acid] | 8.33 | 4.49 |  | 
3 | Cc1c(Nc2nc3ccccc3s2)nnc2c1CCCN2c1ccc(-c2cnn(CC34CC5(C)CC(C)(C3)CC(OCCN(C)CCCCCCCCCCCC(=O)N3CCC(c6ccc7c(c6)CN(C6CCC(=O)NC6=O)C7=O)CC3)(C5)C4)c2C)c(C(=O)O)n1 (stereo not shown) [Example 69, 6-[3-(1,3-benzothiazol-2-ylamino)-4-methyl-6,7-dihydro-5H-pyrido[2,3-c]pyridazin-8-yl]-3-[1-[[3-[2-[[12-[4-[2-(2,6-dioxo-3-piperidyl)-1-oxo-isoindolin-5-yl]-1-piperidyl]-12-oxo-dodecyl]-methyl-amino]ethoxy]-5,7-dimethyl-1-adamantyl]methyl]-5-methyl-pyrazol-4-yl]pyridine-2-carboxylic acid] | 8.29 | 0.711 |  | 
4 | Cc1ncsc1-c1ccc([C@H](C)NC(=O)[C@@H]2C[C@@H](O)CN2C(=O)[C@@H](NC(=O)CCOCCOCCN(C)CCOC23CC4(C)CC(C)(CC(Cn5ncc(-c6ccc(N7CCCc8c7nnc(Nc7nc9ccccc9s7)c8C)nc6C(=O)O)c5C)(C4)C2)C3)C(C)(C)C)cc1 [Example 173, 6-[3-(1,3-benzothiazol-2-ylamino)-4-methyl-6,7-dihydro-5H-pyrido[2,3-c]pyridazin-8-yl]-3-[1-[[3-[2-[2-[2-[3-[[(1S)-1-[(2S,4R)-4-hydroxy-2-[[(1S)-1-[4-(4-methylthiazol-5-yl)phenyl]ethyl]carbamoyl]pyrrolidine-1-carbonyl]-2,2-dimethyl-propyl]amino]-3-oxo-propoxy]ethoxy]ethyl-methyl-amino]ethoxy]-5,7-dimethyl-1-adamantyl]methyl]-5-methyl-pyrazol-4-yl]pyridine-2-carboxylic acid] | 7.45 | > 316 |  | 
5 | Cc1c(Nc2nc3ccccc3s2)nnc2c1CCCN2c1ccc(-c2cnn(CC34CC5(C)CC(C)(C3)CC(OCCN(C)CCCCCOc3ccc6c(c3)C(=O)N(C3CCC(=O)NC3=O)C6=O)(C5)C4)c2C)c(C(=O)O)n1 (stereo not shown) [Example 107, 6-[3-(1,3-benzothiazol-2-ylamino)-4-methyl-6,7-dihydro-5H-pyrido[2,3-c]pyridazin-8-yl]-3-[1-[[3-[2-[5-[2-(2,6-dioxo-3-piperidyl)-1,3-dioxo-isoindolin-5-yl]oxypentyl-methyl-amino]ethoxy]-5,7-dimethyl-1-adamantyl]methyl]-5-methyl-pyrazol-4-yl]pyridine-2-carboxylic acid] | 8.33 | 0.739 |  | 
6 | Cc1c(Nc2nc3ccccc3s2)nnc2c1CCCN2c1nc(C(=O)O)c(CCCOc2ccc(C#CCN3CCN(C(=O)CCCC(=O)NCCOCCNC(=O)COc4cccc5c4C(=O)N(C4CCC(=O)NC4=O)C5=O)CC3)cc2F)s1 (stereo not shown) [Example 174, 2-[3-(1,3-benzothiazol-2-ylamino)-4-methyl-6,7-dihydro-5H-pyrido[2,3-c]pyridazin-8-yl]-5-[3-[4-[3-[4-[5-[2-[2-[[2-[2-(2,6-dioxo-3-piperidyl)-1,3-dioxo-isoindolin-4-yl]oxyacetyl]amino]ethoxy]ethylamino]-5-oxo-pentanoyl]piperazin-1-yl]prop-1-ynyl]-2-fluoro-phenoxy]propyl]thiazole-4-carboxylic acid] | 7.59 | > 316 |  | 
7 | Cc1c(Nc2nc3ccccc3s2)nnc2c1CCCN2c1ccc(-c2cnn(CC34CC5(C)CC(C)(C3)CC(OCCN(C)CCOCCOCCOCCOCCNc3cccc6c3C(=O)N(C3CCC(=O)NC3=O)C6=O)(C5)C4)c2C)c(C(=O)O)n1 (stereo not shown) [Example 132, 6-[3-(1,3-benzothiazol-2-ylamino)-4-methyl-6,7-dihydro-5H-pyrido[2,3-c]pyridazin-8-yl]-3-[1-[[3-[2-[2-[2-[2-[2-[2-[[2-(2,6-dioxo-3-piperidyl)-1,3-dioxo-isoindolin-4-yl]amino]ethoxy]ethoxy]ethoxy]ethoxy]ethyl-methyl-amino]ethoxy]-5,7-dimethyl-1-adamantyl]methyl]-5-methyl-pyrazol-4-yl]pyridine-2-carboxylic acid] | 7.58 |  | 108 | 103
8 | Cc1c(Nc2nc3ccccc3s2)nnc2c1CCCN2c1ccc(-c2cnn(CC34CC5(C)CC(C)(C3)CC(OCCN(C)CCCCCCCC(=O)N3CCC(c6ccc7c(c6)CN(C6CCC(=O)NC6=O)C7=O)CC3)(C5)C4)c2C)c(C(=O)O)n1 (stereo not shown) [Example 68, 6-[3-(1,3-benzothiazol-2-ylamino)-4-methyl-6,7-dihydro-5H-pyrido[2,3-c]pyridazin-8-yl]-3-[1-[[3-[2-[[8-[4-[2-(2,6-dioxo-3-piperidyl)-1-oxo-isoindolin-5-yl]-1-piperidyl]-8-oxo-octyl]-methyl-amino]ethoxy]-5,7-dimethyl-1-adamantyl]methyl]-5-methyl-pyrazol-4-yl]pyridine-2-carboxylic acid] | 7.82 | > 316 |  | 
9 | Cc1cc(N(CCCCN(C)C(=O)CCCCCCCCCCNc2cccc3c2C(=O)N(C2CCC(=O)NC2=O)C3=O)c2ccc(-c3cnn(CC45CC6(C)CC(C)(C4)CC(OCCN(C)C)(C6)C5)c3C)c(C(=O)O)n2)nnc1Nc1nc2ccccc2s1 (stereo not shown) [Example 90, 6-[[6-(1,3-benzothiazol-2-ylamino)-5-methyl-pyridazin-3-yl]-[4-[11-[[2-(2,6-dioxo-3-piperidyl)-1,3-dioxo-isoindolin-4-yl]amino]undecanoyl-methyl-amino]butyl]amino]-3-[1-[[3-[2-(dimethylamino)ethoxy]-5,7-dimethyl-1-adamantyl]methyl]-5-methyl-pyrazol-4-yl]pyridine-2-carboxylic acid] | 7.77 | 1.33 |  | 
